# Source: US8916681B2, “Compound, use and method” (Medical Research Council, priority 2007, dated 2014)
# pKd: −log10 of the molar value. Where “and” joins values, the source holds several entries; their conditions need not be identical. Equal values may be shown once. Entries after “also recorded” stand apart in the source; their conditions may differ. Read-outs that look alike come from different tables or passages of the source. Non-standard residues stand in square brackets, D forms with d. Residues, ends and D or L forms follow the SMILES beside them.
# Tests used:
# [1] = system: serum LH and testosterone; experiment: Kisspeptin-10 stimulated LH and testosterone in intact male rats, icv injections; format: in vivo, rat; conditions: for LH secretory response to kisspeptin-10 (AUC): 1 nmol icv with 100 pmol kisspeptin-10, 120-min period after co-injection; for testosterone levels vs kisspeptin-10 alone: 60 min after combined injection with kisspeptin-10
# Experimental: Adult male rats (BW: 280-310 g) bred in the vivarium of the University of Córdoba were used. The animals were maintained under constant conditions of light (14 h of light, from 0700 h) and temperature (22 C), and, before cannula implantation, were kept in groups of four rats per cage with free access to pelleted food and tap water. Experimental procedures were approved by the Córdoba University Ethical Committee for animal experimentation and were conducted in accordance with the European Union normative for care and use of experimental animals.
# The animals were implanted with icy cannulae under light ether anaesthesia and caged individually thereafter. To allow delivery of compounds into the lateral cerebral ventricle, the cannulae were lowered to a depth of 4 mm beneath the surface of the skull; the insert point was 1 mm posterior and 1.2 mm lateral to bregma. Functional tests were conducted at least 24-48 h after cannula implantation.
# Pharmacological tests in intact males involved 5 μl injections at 60 min intervals (icy) of 1 nmol doses of the peptide 234. The last injection was accompanied by the injection of an effective (but sub-maximal) dose of 100 pmol kisspeptin-10 (Phoenix Pharmaceuticals Ltd). Animals injected with vehicle (physiological saline) served as controls. Blood samples (250 μL) were taken by jugular venipuncture at 15- and 60-min following each icy injection. In addition, blood samples were taken immediately before initiation of the experiment (time: 0-min) and at 120-min after last injection (time: 240-min). Experimental procedures and kisspeptin doses were selected on the basis of previous studies (16, 34, 48). For each time-point, 10-12 samples were taken per group.
# Serum LH levels were measured in a volume of 50 μl using a double-antibody method and radioimmunoassay kits supplied by the NIH (Dr. AF Parlow, NIDDK). Rat LH-I-10 was labeled with ^125I using Iodo-Gen precoated tubes, following the instructions of the manufacturer (Pierce), and hormone concentrations were expressed using reference preparation LH-RP-3 as standard. Intra- and inter-assay coefficients of variation were below 8 and 10%, respectively. The sensitivity of the assay was 5 pg/tube. In addition, serum testosterone (T) measurements were selectively conducted in blood samples taken 60-min after co-administration of kp-10 and peptide 234 (Time: 180-min). To this end, a commercial kit from MP Biomedicals was used, following the instructions of the manufacturer. The sensitivity of the assay was 0.1 ng/tube and the intra-assay coefficient of variation was 4.5%. For each hormone, all samples were measured in the same assay. Accuracy of hormone determinations was confirmed by assessment of rat serum samples of known hormone concentrations used as external controls.
# Hormonal determinations were conducted in duplicate, with a minimal total number of 10 samples per group. When appropriate, in addition to individual time-point measurements, integrated LH secretory responses were calculated as the area under the curve (AUC), following the trapezoidal rule. Hormonal data are presented as mean±SEM. Results were analyzed for statistically significant differences using Student t-test or ANOVA followed by Student-Newman-Keuls multiple range test (SigmaStat 2.0). P≦0.05 was considered significant.
# [2] = system: HUVECs (Human Umbilical Vein Endothelial Cells); experiment: Cell migration (wound healing) assay in HUVECs; format: cell-based
# Experimental: Human Umbilical Vein Endothelial Cells (HUVECs) isolated from neonatal umbilical cord were used as they endogenously express gpr-54, which is though to be involved in cell migration in the placenta. Chinese hamster ovary (CHO) cells which stably express the human gpr-54 receptor were used as a model cell line for wound healing assays. […] Complete media was added along with 1 nM Kisspeptin-10 for HUVECs and 100 nM Kisspeptin-10 for CHO cells, the optimal concentrations to inhibit cell migration (wound healing) in each cell type, in the presence and absence of antagonist 233, 234, 273 and 276 for HUVECs and 234 for CHOs. […] Cells were photographed on the axiovert 2000 at 20× magnification in phase contrast (Hori et al., 2001. Metastin suppresses the motility and growth of CHO cells transfected with its receptor. Biochem Biophys Res Commun 286, 958-963; Stafford et al., 2002, Identification and characterization of mouse metastasis-suppressor KiSS1 and its G-protein-coupled receptor. Cancer Res 62, 5399-5404).
# GPR54 = GPR54 (Homo sapiens, UniProt Q969F8); experiment: Whole cell receptor binding assay, competition with 125I-labelled kisspeptin-10; set-up: expressed in transfected cells; host or cells: CHO, stably transfected; conditions: competition with I125-labelled kisspeptin-10
# Experimental: Whole Cell Receptor Binding Assay—Kisspeptin-10 and analogues were prepared at 1:1000 dilutions in HEPES modified Dulbecco's modified Eagle's medium (DMEM) supplemented with ^125I-labelled Kisspeptin to produce 100,000 counts per minute (cpm). Cell monolayers were placed on ice and exposed to 0.5 mls peptide (10 pM-1 uM); the cells were then incubated at 4° C. for 4 hr. After 4 hrs, cells were washed twice with ice cold Dulbecco's phosphate buffered saline (DPBS; with Calcium and Magnesium) and then 0.5 mls 0.1M Sodium Hydroxide (NaOH) were added to cells for 20 minutes, shaking to lyse cells. Lysates were transferred to plastic tubes and bound radioactivity counted on the gamma counter for 60 seconds.
# GPR54, sequence (Q969F8 whole entry): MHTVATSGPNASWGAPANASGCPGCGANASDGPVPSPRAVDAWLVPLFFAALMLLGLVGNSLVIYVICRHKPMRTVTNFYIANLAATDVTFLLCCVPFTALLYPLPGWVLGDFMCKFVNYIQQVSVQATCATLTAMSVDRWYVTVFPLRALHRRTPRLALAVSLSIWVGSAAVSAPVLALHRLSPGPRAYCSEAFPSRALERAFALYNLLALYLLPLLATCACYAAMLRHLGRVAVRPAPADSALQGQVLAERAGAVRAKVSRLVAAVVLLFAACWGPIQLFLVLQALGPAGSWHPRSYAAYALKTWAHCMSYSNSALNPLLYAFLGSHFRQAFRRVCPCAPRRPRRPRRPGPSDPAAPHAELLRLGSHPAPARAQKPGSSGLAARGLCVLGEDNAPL
Compound,serum LH levels ([1]; central injection to vehicle-treated animals at 120 min),inhibition of migration in to the wound ([2]; 1 nM),pKd (GPR54; binding affinity),LH secretory response to kisspeptin-10 (AUC) [1],LH secretory response to kisspeptin-10 (AUC) ([1]; listed as peptide 234),"basal LH levels ([1]; 1 nmol icv, 15, 60, 75 and 120 min after injection)",testosterone levels vs kisspeptin-10 alone [1],testosterone levels vs kisspeptin-10 alone ([1]; listed as peptide 234),inhibition of migration by 1 nM Kisspeptin in the presence of peptide ([2]; 22 hrs),pKd (GPR54; read-out: binding affinity)
"CC(C)C[C@H](NC(=O)CNC(=O)[C@H](Cc1ccccc1)NC(=O)[C@H](CO)NC(=O)[C@H](CC(N)=O)NC(=O)[C@H](Cc1c[nH]c2ccccc12)NC(=O)[C@H](CC(N)=O)NC(=O)[C@@H](N)Cc1ccc(O)cc1)C(=O)N[C@@H](CCCNC(=N)N)C(=O)N[C@@H](Cc1ccccc1)C(N)=O [Kiss, reference compound]",evoked the expected rise,50%,8.70,–,–,–,–,–,–,–
CC(=O)N[C@H](C)C(=O)N[C@@H](CC(N)=O)C(=O)N[C@@H](Cc1c[nH]c2ccccc12)C(=O)N[C@@H](CC(N)=O)C(=O)NCC(=O)N[C@@H](Cc1ccccc1)C(=O)NCC(=O)N[C@H](Cc1c[nH]c2ccccc12)C(=O)N[C@@H](CCCNC(=N)N)C(=O)N[C@@H](Cc1ccccc1)C(N)=O [Peptide 234] (Ac-[dA]NWNGFG[dW]RF-NH2),–,–,–,inhibits; also recorded: blocked,significantly blunted,did not significantly modify,blocked,lower,10%,8.70 and 8.57
